This is an account of results in US7550469B2, “Heterocyclic amide derivatives and their use as dopamine D3 receptor ligands” (Aventis Pharmaceuticals Inc., priority 2001, dated 2009).

For one test, the target named is T1, cloned human alpha-1A adrenergic receptors (α1a) (Homo sapiens, UniProt P35348).
T1 construct: expressed in transfected cells; host or cells: CHO cells, G418-resistant clone, pcDNA3 vector; membrane fragments
T1 sequence (P35348 1-466): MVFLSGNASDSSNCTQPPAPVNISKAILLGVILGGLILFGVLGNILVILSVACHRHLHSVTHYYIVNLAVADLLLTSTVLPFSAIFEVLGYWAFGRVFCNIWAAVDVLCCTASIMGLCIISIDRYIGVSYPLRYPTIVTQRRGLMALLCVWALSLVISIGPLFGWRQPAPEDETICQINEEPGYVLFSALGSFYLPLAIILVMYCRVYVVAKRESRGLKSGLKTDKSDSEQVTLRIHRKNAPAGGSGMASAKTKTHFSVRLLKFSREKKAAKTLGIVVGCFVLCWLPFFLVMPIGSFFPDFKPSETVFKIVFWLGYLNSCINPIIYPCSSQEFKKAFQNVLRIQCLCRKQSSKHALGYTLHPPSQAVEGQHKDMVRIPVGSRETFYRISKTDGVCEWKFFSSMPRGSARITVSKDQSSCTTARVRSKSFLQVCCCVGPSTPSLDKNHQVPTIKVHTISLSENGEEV
Briefly: [3H]Prazosin binding to cloned human alpha-1A adrenergic receptors expressed in CHO cells. Particulars: Inh @ 1 uM. The source says:
^3H]PRAZOSIN BINDING TO CLONED HUMAN ALPHA-1A ADRENERGIC RECEPTORS (α1a) EXPRESSED IN CHINESE HAMSTER OVARY CELLS (CHO)
Purpose: This in vitro assay is designed as a screen to identify compounds displaying a affinity for the human α1a adrenoceptor subtype expressed in the membrane fragments of CHO cells. The assay measures the ability of the test compounds to displace [^3H] prazosin from α1a sites. • The identification of multiple vascular α1-addrenoceptors (α1a, α1b, α1d) in vitro has provided impetus to define the role(s) of these subtypes in cardiovascular regulation in vivo (Vargas and Gorman, 1995). […] Prazosin is a potent antagonist of the human α1a-adrenoceptor subtype, which has been cloned and is expressed in the membrane fragments of CHO cells. hα1a Receptor: The cloning of the human α1a cDNA was accomplished first by screening a human prostate cDNA library (Clontech), from which a portion of the coding region was obtained. This DNA fragment was then used to screen a human leukocyte genomic library (Clontech), and the rest of the coding sequence was obtained. Later these two fragments were spliced together. The entire coding sequence was then fully sequenced including matching PCR sequence with original genomic coding sequence, thus ensuring splice sites were joined correctly (Schwinn et al., 1995). Once sequenced, the gene was subcloned into the expression vector pcDNA3 (Invitrogen). Plasmid DNA was then used for transfection into CHO cells and G418 resistant clones were isolated. A clone expressing high levels of the hα1a receptor (as determined by mRNA and receptor binding data) was chosen and pharmacologically characterized. Culture Media: Media Ingredients for Adherent α1a expressing CHO Culture: • A. HAM's F-12 (Cellgro) • B. 10% 0.2 micron filtered Fetal Bovine Serum (FBS)(Cellgro) • C. 1% 0.2 micron filtered Penicillin-Streptomycin (Celigro) • D. G418 0.2 micron filtered (Geneticin 400 μg/ml)(Cellgro) • Cells are cultured using established methods and procedures in either 150×25 mm culture plates (scale up to 100 plates) or a combination of these plates and 70 roller bottles. One culturing/harvest cycle typically requires 2 weeks and yields between 100-400 mg protein. Plates or bottles are incubated at 37° C.+5% CO2. Storage: Cells are harvested by mechanical scraping, washed using PBS, collected in 250 ml Corning polypropylene centrifuge tubes, spun down (1500RPM) and resuspended in dH2O 10% DMSO (final volume per harvest is approximately 50 ml). Protein determination is made using the Biorad DC Assay Kit. Finally, the appropriate volume is aliquoted into a 2 ml Corning Cryovial (10 mg/1-1.5 ml) which is stored at −80° C. Current Lot Data:
Assay Requirement: 0.5 cryovials per 96 well plate (assay volume=200 μl/well) [^3H]-Ligand: [7-methoxy-^3H]-Prazosin: 1.0 nM (NEN, NET-823) • 70-87 Ci/mmol Materials: Phentolamine mesylate (Research Biochemicals Int. #P-131) • 96 well flat bottom plates (Beckman) • Unifilter GF/B Plate (Packard) • Polyethylenimine (Sigma #P-3134) • TomTec or Packard Filtermate 196 Cell Harvesters • Packard TopCount Scintillation Counter Buffers: A: 50 mM Tris HCl; 0.1% ascorbate, pH 7.7 (incubation buffer) • B: 50 mM Tris HCl; pH 7.7 (wash buffer) Procedure: Assay additions are as follows (in the order indicated): • Total Binding=50 μl buffer A+50 μl [^3H]prazosin+100 μl membrane • Nonsp. Bd.=50 μl 10 μM phentolamine+50 μl [^3H]prazosin+100 μl membrane • Test Cpd.=50 μl compound+50 μl [^3H]prazosin+100 μl membrane • Compounds to be evaluated are weighed out to yield a 10 mM stock solution in DMSO in a 24 well polystyrene plate. This is diluted to a 0.5 mM stock in dH2O. Serial dilutions in Buffer A are made from which 50 μl additions to the plate are made in duplicate in order to achieve the final concentrations desired. Typically, one 96 well plate is used to evaluate 11 compounds at 4 concentrations (10^−6-10^−9 M) in duplicate. […]
On to `O=C(NCCCCN1CCN(c2csc3cc(C(F)(F)F)ccc23)CC1)c1ccc(C(F)(F)F)cc1` [compound 815555], for which the “halpha 1 % I h = human” value came to 24% Inh @ 1 uM.

On to `COc1ccccc1C(=O)NCCCCN1CCN(c2csc3cc(C(F)(F)F)ccc23)CC1` [compound 815554], for which the “halpha 1 % I h = human” value was 40% Inh @ 1 uM.

With `O=C(NCCCCN1CCN(c2csc3cc(C(F)(F)F)ccc23)CC1)c1ccc(Cl)cc1` [compound 815548], the “halpha 1 % I h = human” value was determined as 27% Inh @ 1 uM.

The same test, now with this note: Inh @ 10 uM.
For the compound `O=C(NCCCCN1CCN(c2csc3cc(C(F)(F)F)ccc23)CC1)c1ccc(-c2ccccc2)cc1` [815547A], the “halpha 1 % I h = human” value was 18.7% @ 10 uM.

As for `CCOc1ccc(C(=O)NCCCCN2CCN(c3csc4cc(C(F)(F)F)ccc34)CC2)cc1` [compound 815541], the “halpha 1 % I h = human” value amounted to 48% Inh @ 10 uM.

On to `CCCCOc1ccc(C(=O)NCCCCN2CCN(c3csc4cc(C(F)(F)F)ccc34)CC2)cc1` [compound 815545], for which the “halpha 1 % I h = human” value came out at 25% Inh @ 10 uM.

The same test, now with this note: h = human; piperazines (n = 1) vs homopiperazines (n = 2); read-out: h-α1 Ki.
The term Ki denotes a dissociation constant, usually derived from enzyme kinetics or from competition with a known ligand. As for `O=C(NCCCCN1CCCN(c2csc3cc(F)ccc23)CC1)c1ccc(OC(F)(F)F)cc1` [compound 822152], the Ki was 122 nM.

Turning to `CC(C)(C)c1ccc(C(=O)NCCCCN2CCCN(c3csc4cc(F)ccc34)CC2)cc1` [compound 822198], the Ki worked out at 209 nM.

Take `O=C(NCCCCN1CCCN(c2csc3cc(F)ccc23)CC1)c1ccc2ccccc2c1` [822223G]: the Ki was 123 nM.

Turning to `O=C(NCCCCN1CCCN(c2csc3cc(F)ccc23)CC1)c1cc2ccccc2s1` [822224G], the Ki was found to be 82.5 nM.

On to `COc1ccccc1C(=O)NCCCCN1CCCN(c2csc3cc(F)ccc23)CC1` [compound 822157], for which the Ki stood at 27.4 nM.

For `O=C(NCCCCN1CCCN(c2csc3cc(F)ccc23)CC1)c1cccc(F)c1` [compound 822154], the Ki came to 41.8 nM.

For `O=C(NCCCCN1CCCN(c2csc3cc(F)ccc23)CC1)c1ccco1` [S981843], the Ki came to 5.6 nM.

Still in this test, the particulars now being: human α-1; 6-fluoro vs 6-trifluoromethyl benzo[b]thiophene pairs; read-out: halpha 1 Ki (nM) h = human.
In the case of `O=C(NCCCCN1CCN(c2csc3cc(C(F)(F)F)ccc23)CC1)c1c(F)cccc1F` [compound 815557], the Ki stood at 72 nM.

As to `O=C(NCCCCN1CCN(c2csc3cc(C(F)(F)F)ccc23)CC1)c1ccc2c(c1)OCO2` [compound 815544], the Ki turned out to be 62 nM.

Regarding `O=C(NCCCCN1CCN(c2csc3cc(C(F)(F)F)ccc23)CC1)c1ccc(F)cc1F` [compound 815542], the Ki was found to be 68 nM.

As for `O=C(NCCCCN1CCN(c2csc3cc(C(F)(F)F)ccc23)CC1)c1ccc(Br)cc1` [compound 815551], the Ki worked out at 80 nM.

With `O=C(NCCCCN1CCN(c2csc3cc(C(F)(F)F)ccc23)CC1)c1cc2ccccc2s1` [814238A], the Ki was 78.3 nM.

Take `CCOc1ccc(C(=O)NCCCCN2CCN(c3csc4cc(C(F)(F)F)ccc34)CC2)cc1` [compound 815541]: the Ki was 1110 nM.

As for `O=C(NCCCCN1CCN(c2csc3cc(C(F)(F)F)ccc23)CC1)c1ccco1` [compound 815556], the Ki was determined as 12 nM.

Consider `O=C(NCCCCN1CCN(c2csc3cc(C(F)(F)F)ccc23)CC1)c1sc2ccccc2c1Cl` [compound 815546], for which the Ki was 59 nM.
